Reference: PubChem BioAssay (NCI)
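Growth conditions: 96-well plates. Treatment: test compound, 48 hours, 5 concentrations. Analysis: linear interpolation between bracketing concentrations; unreached endpoints set to highest concentration. TGI: concentration producing complete growth inhibition.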

Experiments:
Experiment in all cases: inhibition of tumour cell growth, NCI panel, 48 h
MDA-MB-435 = system: MDA-MB-435
SK-OV-3 ovarian = system: SK-OV-3 ovarian
CAKI-1 renal = system: CAKI-1 renal
SF-539 CNS = system: SF-539 CNS
PC-3 prostate = system: PC-3 prostate
SK-MEL-2 melanoma = system: SK-MEL-2 melanoma
BT-549 breast = system: BT-549 breast
OVCAR-8 ovarian = system: OVCAR-8 ovarian
M14 melanoma = system: M14 melanoma
MCF7 breast = system: MCF7 breast
EKVX NSCLC = system: EKVX NSCLC
MOLT-4 leukemia = system: MOLT-4 leukemia
786-0 renal = system: 786-0 renal
IGROV1 ovarian = system: IGROV1 ovarian
RPMI-8226 leukemia = system: RPMI-8226 leukemia
NCI-H460 lung = system: NCI-H460 lung
T-47D breast = system: T-47D breast
K-562 leukemia = system: K-562 leukemia
UO-31 renal = system: UO-31 renal
COLO 205 colon = system: COLO 205 colon
HCT-15 colon = system: HCT-15 colon
MDA-MB-231 breast = system: MDA-MB-231 breast
HL-60(TB) leukemia = system: HL-60(TB) leukemia
OVCAR-5 ovarian = system: OVCAR-5 ovarian
SF-295 CNS = system: SF-295 CNS
MDA-N = system: MDA-N
TK-10 renal = system: TK-10 renal
U251 CNS = system: U251 CNS
NCI-H522 lung = system: NCI-H522 lung
OVCAR-3 ovarian = system: OVCAR-3 ovarian
RXF 393 renal = system: RXF 393 renal
MALME-3M melanoma = system: MALME-3M melanoma
NCI-H23 lung = system: NCI-H23 lung
SNB-75 CNS = system: SNB-75 CNS
OVCAR-4 ovarian = system: OVCAR-4 ovarian
SW-620 colon = system: SW-620 colon
HT29 colon = system: HT29 colon
HCC-2998 colon = system: HCC-2998 colon
SN12C renal = system: SN12C renal
SR leukemia = system: SR leukemia
HCT-116 colon = system: HCT-116 colon
ACHN renal = system: ACHN renal
NCI-H226 lung = system: NCI-H226 lung
SF-268 CNS = system: SF-268 CNS
HOP-62 NSCLC = system: HOP-62 NSCLC
HOP-92 NSCLC = system: HOP-92 NSCLC
NCI/ADR-RES ovarian = system: NCI/ADR-RES ovarian
UACC-257 melanoma = system: UACC-257 melanoma
HS 578T breast = system: HS 578T breast
DU-145 prostate = system: DU-145 prostate
A549 NSCLC = system: A549 NSCLC
LOX IMVI melanoma = system: LOX IMVI melanoma
CCRF-CEM leukemia = system: CCRF-CEM leukemia
KM12 colon = system: KM12 colon
SK-MEL-28 melanoma = system: SK-MEL-28 melanoma
SNB-19 CNS = system: SNB-19 CNS
A498 renal = system: A498 renal
SK-MEL-5 melanoma = system: SK-MEL-5 melanoma
UACC-62 melanoma = system: UACC-62 melanoma

O=[N+]([O-])/C(C(Cl)=C(Cl)Cl)=C(/Sc1ccccc1)N1CCCCC1 was tested, and the TGI (MDA-MB-435) was over 100 µM, the TGI (SK-OV-3 ovarian) was over 100 µM and the TGI (CAKI-1 renal) was over 100 µM. It also gave a TGI (SF-539 CNS) of over 100 µM, a TGI (PC-3 prostate) of over 100 µM and a TGI (SK-MEL-2 melanoma) of over 100 µM. For the same molecule, the TGI (BT-549 breast) was over 100 µM, the TGI (OVCAR-8 ovarian) was over 100 µM and the TGI (M14 melanoma) was over 100 µM. For the same molecule, the TGI (MCF7 breast) was over 100 µM, the TGI (EKVX NSCLC) was over 100 µM and the TGI (MOLT-4 leukemia) was over 100 µM. For the same molecule, the TGI (786-0 renal) was over 100 µM, the TGI (IGROV1 ovarian) was over 100 µM and the TGI (RPMI-8226 leukemia) was over 100 µM. It also gave a TGI (NCI-H460 lung) of over 100 µM, a TGI (T-47D breast) of over 100 µM and a TGI (K-562 leukemia) of over 100 µM. The TGI (UO-31 renal) was over 100 µM, the TGI (COLO 205 colon) was over 100 µM and the TGI (HCT-15 colon) was over 100 µM. It also gave a TGI (MDA-MB-231 breast) of over 100 µM, a TGI (HL-60(TB) leukemia) of over 26.8 µM and a TGI (OVCAR-5 ovarian) of over 100 µM. It also gave a TGI (SF-295 CNS) of over 100 µM, a TGI (MDA-N) of over 100 µM and a TGI (TK-10 renal) of over 100 µM. For the same molecule, the TGI (U251 CNS) was over 100 µM, the TGI (NCI-H522 lung) was over 100 µM and the TGI (OVCAR-3 ovarian) was over 100 µM. It also gave a TGI (RXF 393 renal) of over 100 µM, a TGI (MALME-3M melanoma) of over 100 µM and a TGI (NCI-H23 lung) of over 100 µM. For the same molecule, the TGI (SNB-75 CNS) was over 100 µM, the TGI (OVCAR-4 ovarian) was over 100 µM and the TGI (SW-620 colon) was over 100 µM. For the same molecule, the TGI (HT29 colon) was over 100 µM, the TGI (HCC-2998 colon) was over 100 µM and the TGI (SN12C renal) was over 100 µM. The TGI (SR leukemia) was over 26.4 µM, the TGI (HCT-116 colon) was over 100 µM and the TGI (ACHN renal) was over 100 µM. For the same molecule, the TGI (NCI-H226 lung) was over 100 µM, the TGI (SF-268 CNS) was over 100 µM and the TGI (HOP-62 NSCLC) was over 100 µM. The TGI (HOP-92 NSCLC) was over 100 µM, the TGI (NCI/ADR-RES ovarian) was over 100 µM and the TGI (UACC-257 melanoma) was 99.1 µM. It also gave a TGI (HS 578T breast) of over 100 µM, a TGI (DU-145 prostate) of over 100 µM and a TGI (A549 NSCLC) of over 100 µM. The TGI (LOX IMVI melanoma) was over 100 µM, the TGI (CCRF-CEM leukemia) was over 100 µM and the TGI (KM12 colon) was over 100 µM. The TGI (SK-MEL-28 melanoma) was over 100 µM, the TGI (SNB-19 CNS) was over 100 µM and the TGI (A498 renal) was over 100 µM. The TGI (SK-MEL-5 melanoma) was over 88.1 µM and the TGI (UACC-62 melanoma) was over 100 µM.
Cc1c(C)c2c(c(N)c1C#N)C(=O)N(CCN1CCNCC1)C2=O showed a TGI (MDA-MB-435) of over 100 µM, a TGI (CAKI-1 renal) of over 100 µM and a TGI (SF-539 CNS) of over 100 µM. For the same molecule, the TGI (PC-3 prostate) was over 100 µM, the TGI (SK-MEL-2 melanoma) was over 100 µM and the TGI (BT-549 breast) was over 100 µM. For the same molecule, the TGI (OVCAR-8 ovarian) was over 100 µM, the TGI (M14 melanoma) was over 100 µM and the TGI (MCF7 breast) was over 100 µM. The TGI (EKVX NSCLC) was over 100 µM, the TGI (MOLT-4 leukemia) was over 100 µM and the TGI (786-0 renal) was over 100 µM. For the same molecule, the TGI (IGROV1 ovarian) was over 100 µM, the TGI (RPMI-8226 leukemia) was over 100 µM and the TGI (NCI-H460 lung) was over 100 µM. For the same molecule, the TGI (T-47D breast) was over 100 µM, the TGI (K-562 leukemia) was over 100 µM and the TGI (UO-31 renal) was 90.9 µM. It also gave a TGI (COLO 205 colon) of 78.7 µM, a TGI (HCT-15 colon) of over 100 µM and a TGI (MDA-MB-231 breast) of over 100 µM. The TGI (HL-60(TB) leukemia) was over 100 µM, the TGI (OVCAR-5 ovarian) was 81.1 µM and the TGI (SF-295 CNS) was over 100 µM. It also gave a TGI (MDA-N) of over 100 µM, a TGI (TK-10 renal) of over 100 µM and a TGI (U251 CNS) of over 100 µM. The TGI (NCI-H522 lung) was 97.3 µM, the TGI (OVCAR-3 ovarian) was over 100 µM and the TGI (RXF 393 renal) was 70.6 µM. The TGI (MALME-3M melanoma) was 73.1 µM, the TGI (SNB-75 CNS) was 77 µM and the TGI (OVCAR-4 ovarian) was over 100 µM. For the same molecule, the TGI (SW-620 colon) was over 100 µM, the TGI (HCC-2998 colon) was over 100 µM and the TGI (SN12C renal) was over 100 µM. For the same molecule, the TGI (SR leukemia) was 95 µM, the TGI (HCT-116 colon) was 52.2 µM and the TGI (ACHN renal) was over 100 µM. For the same molecule, the TGI (NCI-H226 lung) was over 100 µM, the TGI (SF-268 CNS) was over 100 µM and the TGI (HOP-92 NSCLC) was over 100 µM. For the same molecule, the TGI (NCI/ADR-RES ovarian) was over 100 µM, the TGI (UACC-257 melanoma) was over 100 µM and the TGI (HS 578T breast) was over 100 µM. The TGI (DU-145 prostate) was over 100 µM, the TGI (A549 NSCLC) was over 100 µM and the TGI (LOX IMVI melanoma) was 47.9 µM. The TGI (CCRF-CEM leukemia) was over 100 µM, the TGI (KM12 colon) was over 100 µM and the TGI (SK-MEL-28 melanoma) was over 100 µM. For the same molecule, the TGI (SNB-19 CNS) was over 100 µM, the TGI (A498 renal) was 72.3 µM and the TGI (UACC-62 melanoma) was 62.4 µM.
CCOC(=O)/C=C(/C(=O)OCC)n1ccc(=O)n(/C(=C/C(=O)OCC)C(=O)OCC)c1=O was tested, and the TGI (MDA-MB-435) was 22.1 µM, the TGI (SK-OV-3 ovarian) was 43.7 µM and the TGI (CAKI-1 renal) was 3.23 µM. It also gave a TGI (SF-539 CNS) of 34.2 µM, a TGI (PC-3 prostate) of 29 µM and a TGI (SK-MEL-2 melanoma) of 17.6 µM. It also gave a TGI (BT-549 breast) of 30.2 µM, a TGI (OVCAR-8 ovarian) of 23.2 µM and a TGI (M14 melanoma) of 10.6 µM. It also gave a TGI (MCF7 breast) of 19.9 µM, a TGI (EKVX NSCLC) of 36 µM and a TGI (MOLT-4 leukemia) of 3.84 µM. The TGI (786-0 renal) was 5.86 µM, the TGI (IGROV1 ovarian) was 31.4 µM and the TGI (RPMI-8226 leukemia) was 7.08 µM. For the same molecule, the TGI (NCI-H460 lung) was 34.3 µM, the TGI (T-47D breast) was 15.9 µM and the TGI (K-562 leukemia) was 10.3 µM. The TGI (UO-31 renal) was 28.9 µM, the TGI (COLO 205 colon) was 3.79 µM and the TGI (HCT-15 colon) was 6.32 µM. It also gave a TGI (MDA-MB-231 breast) of 31.9 µM, a TGI (HL-60(TB) leukemia) of 2.91 µM and a TGI (OVCAR-5 ovarian) of 31.2 µM. For the same molecule, the TGI (SF-295 CNS) was 55.1 µM, the TGI (MDA-N) was 26.7 µM and the TGI (TK-10 renal) was 17.6 µM. For the same molecule, the TGI (U251 CNS) was 29.4 µM, the TGI (NCI-H522 lung) was 3.53 µM and the TGI (OVCAR-3 ovarian) was 16.9 µM. It also gave a TGI (RXF 393 renal) of 9.62 µM, a TGI (MALME-3M melanoma) of 8.15 µM and a TGI (NCI-H23 lung) of 42.7 µM. It also gave a TGI (SNB-75 CNS) of 32.6 µM, a TGI (OVCAR-4 ovarian) of 30.6 µM and a TGI (SW-620 colon) of 4.07 µM. The TGI (HT29 colon) was 26.8 µM, the TGI (HCC-2998 colon) was 35 µM and the TGI (SN12C renal) was 17.9 µM. For the same molecule, the TGI (SR leukemia) was 13.5 µM, the TGI (HCT-116 colon) was 6.88 µM and the TGI (ACHN renal) was 8.06 µM. The TGI (NCI-H226 lung) was 18.9 µM, the TGI (SF-268 CNS) was 43.9 µM and the TGI (HOP-62 NSCLC) was 46.9 µM. For the same molecule, the TGI (HOP-92 NSCLC) was 4.11 µM, the TGI (NCI/ADR-RES ovarian) was 55.3 µM and the TGI (UACC-257 melanoma) was 24.5 µM. For the same molecule, the TGI (HS 578T breast) was 45.5 µM, the TGI (DU-145 prostate) was 34.9 µM and the TGI (A549 NSCLC) was 32.7 µM. It also gave a TGI (LOX IMVI melanoma) of 10.5 µM, a TGI (CCRF-CEM leukemia) of 3.53 µM and a TGI (KM12 colon) of 33.9 µM. It also gave a TGI (SK-MEL-28 melanoma) of 27.9 µM, a TGI (SNB-19 CNS) of 38.3 µM and a TGI (A498 renal) of 38.8 µM. The TGI (SK-MEL-5 melanoma) was 28.6 µM and the TGI (UACC-62 melanoma) was 28.3 µM.
